Measurements reported in patent US9879043B1, “Synthesis of non-natural cofactor analogs of S-adenosyl-L-methionine using methionine adenosyltransferase” (University of Kentucky Research Foundation, priority 2013, dated 2018).

target: T1, Sulfolobus solfataricus MAT (sMAT) (Saccharolobus solfataricus, UniProt Q980S9); assay: not given; type: biochemical; details: 2 mM analog, 1 mM ATP, 5 μM sMAT, pH 8.0, 4 h at 65° C.; average of two assays
T1 sequence (Q980S9 1-404): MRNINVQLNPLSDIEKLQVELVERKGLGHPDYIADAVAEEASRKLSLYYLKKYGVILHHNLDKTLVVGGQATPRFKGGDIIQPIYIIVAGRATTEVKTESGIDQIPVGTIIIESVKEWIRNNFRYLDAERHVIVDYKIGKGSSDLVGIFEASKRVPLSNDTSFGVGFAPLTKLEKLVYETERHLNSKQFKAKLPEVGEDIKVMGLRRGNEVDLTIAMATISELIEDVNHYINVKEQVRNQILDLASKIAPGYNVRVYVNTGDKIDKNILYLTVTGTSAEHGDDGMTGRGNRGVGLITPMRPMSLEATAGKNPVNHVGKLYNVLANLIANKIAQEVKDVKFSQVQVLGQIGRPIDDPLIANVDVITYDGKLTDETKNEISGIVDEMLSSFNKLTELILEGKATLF
Protocol: In-vitro sMAT assay: In vitro sMAT reactions were conducted in a volume of 50 μl with 2 mM S/Se-alkylated analog, 1 mM ATP and 5 μM purified sMAT in 25 mM Tris buffer pH 8.0, 5 mM MgCl2, 50 mM KCl for 4 h at 65° C. Reactions were quenched by adding an equal volume of methanol followed by centrifugation (10,000×g for 15 min) to remove the precipitated protein and product formation for each reaction was subsequently analyzed by reverse phase HPLC (RP-HPLC) using method described below. For each reaction, percent yield was based upon the integration of species at 254 nm and calculated by dividing the integrated area of product and/or decomposed product by the sum of integrated area of product and/or decomposed product and the remaining substrate. The assays were repeated twice under identical conditions, and Table 4 (and FIG. 17) represents an average value of two assays. The inclusion of adenine and 5′-R-thio-5′-adenosine in these calculations is based upon the established SAM and ATP chemical decomposition pathways which indicate adenine and 5′-R-thio-5′-adenosine to only derive from SAM (not ATP). All putative products were subsequently confirmed by high resolution electrospray ionization (ESI) mass spectra with positive (+) and/or negative (−) mode.
RP-HPLC method: Reactions were quenched by the addition of equal volume of methanol followed by centrifugation at 10,000 g for 15 min to remove precipitated protein before applying on an analytical Varian ProStar HPLC [Luna C18 column, 5 μm, 4.6 mm×250 mm; Phenomenex, Torrance, Calif., USA; gradient of 10% B to 40% B over 15 min, 40% B to 75% B over 5 min (A=10 mM NaH2PO4, 5 mM octane sulfonic acid, pH was adjusted to 3.5 using phosphoric acid; B=acetonitrile) flow rate=1 mL min^−1; A254].

SMILES	Percentage Turn-Over (sMAT) [%]
CCCSCC[C@H](N)C(=O)O [compound 8, (2S)-2-amino-4-(propylsulfanyl)butanoic acid]	44
CC(C)SCC[C@H](N)C(=O)O [compound 9, (2S)-2-amino-4-(propan-2-ylsulfanyl)butanoic acid]	53
C#CCCSCC[C@H](N)C(=O)O [compound 10, (2S)-2-amino-4-(but-3-yn-1-ylsulfanyl)butanoic acid]	30
C/C=C/CSCC[C@H](N)C(=O)O [compound 11, (2S)-2-amino-4-[(2E)-but-2-en-1-ylsulfanyl]butanoic acid]	27
C=C(C)CSCC[C@H](N)C(=O)O [compound 12, (2S)-2-amino-4-[(2-methylprop-2-en-1-yl)sulfanyl]butanoic acid]	15

target: human MAT II catalytic alpha and regulatory beta subunit (hMAT2) (Homo sapiens, UniProt P31153); assay: MAT assay, turnover of S/Se-Met analogs to S(Se)AM analogs (RP-HPLC end point); type: biochemical; details: 2 mM Met analog, 1 mM ATP, 5 μM MAT, pH 8, 4 h, 37° C.; average of two assays
Protocol: (§1) Standard uniform assay conditions (2 mM Met analog, 1 mM ATP, 5 μM MAT, 25 mM Tris, 5 mM MgCl2, 50 mM KCl, pH 8, 4 h) were adopted to facilitate this broad assessment. For the thermophilic counterpart (mMAT), reactions were conducted at 65° C., while all other reactions were incubated at 37° C. Production of SAM analogs was determined by an RP-HPLC end point assay to afford complete analysis of the desired SAM analog and/or any corresponding degradation products known to directly derive from the desired SAM analog intermediate.
(§2) To monitor MAT reactions, analytical RP HPLC employed a Luna C18 column (5 μm, 4.6 mm×250 mm; Phenomenex, Torrance, Calif., USA) [gradient of 10% B to 40% B over 15 min, 40% B to 75% B over 5 min (A=10 mM NaH2PO4, 5 mM octane sulfonic acid, pH was adjusted to 3.5 using phosphoric acid; B=acetonitrile) flow rate=1 mL min^−1; A254].
(§3) The sMAT and mMAT reactions were conducted at 65° C. while hMATs and eMAT were incubated at 37° C. Reactions were quenched by adding an equal volume of methanol followed by centrifugation (10,000×g for 15 min) to remove the precipitated protein and product formation for each reaction was subsequently analyzed by RP-HPLC using Method D (FIG. 15, first column). For each reaction, percent yield was based upon the integration of species at 254 nm and calculated by dividing the integrated area of product and/or decomposed product by the sum of integrated area of product and/or decomposed product and the remaining substrate. The assays were repeated twice under identical conditions, and Table 2 (and FIG. 5) represents an average value of two assays. The inclusion of adenine and 5′-R-thio-5′-adenosine in these calculations is based upon the established SAM and ATP chemical decomposition pathways which indicate adenine and 5′-R-thio-5′-adenosine to only derive from SAM (not ATP). All putative products were subsequently confirmed by high resolution electrospray ionization (ESI) mass spectra with positive (+) and/or negative (−) mode.

SMILES	Percentage Turn-over hMAT2 [%]
CCCSCC[C@H](N)C(=O)O [compound 8, (2S)-2-amino-4-(propylsulfanyl)butanoic acid]	55
CC(C)SCC[C@H](N)C(=O)O [compound 9, (2S)-2-amino-4-(propan-2-ylsulfanyl)butanoic acid]	2
C#CCCSCC[C@H](N)C(=O)O [compound 10, (2S)-2-amino-4-(but-3-yn-1-ylsulfanyl)butanoic acid]	40
C/C=C/CSCC[C@H](N)C(=O)O [compound 11, (2S)-2-amino-4-[(2E)-but-2-en-1-ylsulfanyl]butanoic acid]	25
C=C(C)CSCC[C@H](N)C(=O)O [compound 12, (2S)-2-amino-4-[(2-methylprop-2-en-1-yl)sulfanyl]butanoic acid]	2

target: human MAT I catalytic subunit alpha (hMAT1A) (Homo sapiens, UniProt Q00266); assay: as above; type: biochemical; details: 2 mM Met analog, 1 mM ATP, 5 μM MAT, pH 8, 4 h, 37° C.; average of two assays
Protocol: as §1, §2, §3

SMILES	Percentage Turn-over hMAT1A [%]
CCCSCC[C@H](N)C(=O)O [compound 8, (2S)-2-amino-4-(propylsulfanyl)butanoic acid]	5
CC(C)SCC[C@H](N)C(=O)O [compound 9, (2S)-2-amino-4-(propan-2-ylsulfanyl)butanoic acid]	2
C#CCCSCC[C@H](N)C(=O)O [compound 10, (2S)-2-amino-4-(but-3-yn-1-ylsulfanyl)butanoic acid]	0
C/C=C/CSCC[C@H](N)C(=O)O [compound 11, (2S)-2-amino-4-[(2E)-but-2-en-1-ylsulfanyl]butanoic acid]	2
C=C(C)CSCC[C@H](N)C(=O)O [compound 12, (2S)-2-amino-4-[(2-methylprop-2-en-1-yl)sulfanyl]butanoic acid]	0

target: human MAT II catalytic alpha subunit alone (hMAT2A) (Homo sapiens, UniProt P31153); assay: as above; type: biochemical; details: 2 mM Met analog, 1 mM ATP, 5 μM MAT, pH 8, 4 h, 37° C.; average of two assays
Protocol: as §1, §2, §3

SMILES	Percentage Turn-over hMAT2A [%]
CCCSCC[C@H](N)C(=O)O [compound 8, (2S)-2-amino-4-(propylsulfanyl)butanoic acid]	54
CC(C)SCC[C@H](N)C(=O)O [compound 9, (2S)-2-amino-4-(propan-2-ylsulfanyl)butanoic acid]	2
C#CCCSCC[C@H](N)C(=O)O [compound 10, (2S)-2-amino-4-(but-3-yn-1-ylsulfanyl)butanoic acid]	12
C/C=C/CSCC[C@H](N)C(=O)O [compound 11, (2S)-2-amino-4-[(2E)-but-2-en-1-ylsulfanyl]butanoic acid]	5
C=C(C)CSCC[C@H](N)C(=O)O [compound 12, (2S)-2-amino-4-[(2-methylprop-2-en-1-yl)sulfanyl]butanoic acid]	2

target: Escherichia coli MAT (eMAT) (Escherichia coli, UniProt P0A817); assay: as above; type: biochemical; details: 2 mM Met analog, 1 mM ATP, 5 μM MAT, pH 8, 4 h, 37° C.; average of two assays
Protocol: as §1, with “intermediate. Putative SAM analog and SAM-derived degradative product formation was subsequently confirmed via high-resolution mass spectrometry (HRMS) analysis for all positive reactions (see Table 2).” for “intermediate.”
as §2
as §3, with “In vitro MAT reactions were conducted in a volume of 50 μl with 2 mM S/Se-alkylated analog (compounds 2-30), 1 mM ATP and 5 μM purified MAT in 25 mM Tris buffer pH 8.0, 5 mM MgCl2, 50 mM KCl for 4 h. The sMAT” for “The sMAT”

SMILES	Percentage Turn-over eMAT [%]
CCCSCC[C@H](N)C(=O)O [compound 8, (2S)-2-amino-4-(propylsulfanyl)butanoic acid]	2
CC(C)SCC[C@H](N)C(=O)O [compound 9, (2S)-2-amino-4-(propan-2-ylsulfanyl)butanoic acid]	0
C#CCCSCC[C@H](N)C(=O)O [compound 10, (2S)-2-amino-4-(but-3-yn-1-ylsulfanyl)butanoic acid]	0
C/C=C/CSCC[C@H](N)C(=O)O [compound 11, (2S)-2-amino-4-[(2E)-but-2-en-1-ylsulfanyl]butanoic acid]	2
C=C(C)CSCC[C@H](N)C(=O)O [compound 12, (2S)-2-amino-4-[(2-methylprop-2-en-1-yl)sulfanyl]butanoic acid]	0

target: T2, Methanocaldococcus jannaschii MAT (mMAT) (Methanocaldococcus jannaschii, UniProt Q58605); assay: not given; type: biochemical; details: 2 mM Met analog, 1 mM ATP, 5 μM MAT, pH 8, 4 h, 65° C.; average of two assays
T2 sequence (Q58605 1-406): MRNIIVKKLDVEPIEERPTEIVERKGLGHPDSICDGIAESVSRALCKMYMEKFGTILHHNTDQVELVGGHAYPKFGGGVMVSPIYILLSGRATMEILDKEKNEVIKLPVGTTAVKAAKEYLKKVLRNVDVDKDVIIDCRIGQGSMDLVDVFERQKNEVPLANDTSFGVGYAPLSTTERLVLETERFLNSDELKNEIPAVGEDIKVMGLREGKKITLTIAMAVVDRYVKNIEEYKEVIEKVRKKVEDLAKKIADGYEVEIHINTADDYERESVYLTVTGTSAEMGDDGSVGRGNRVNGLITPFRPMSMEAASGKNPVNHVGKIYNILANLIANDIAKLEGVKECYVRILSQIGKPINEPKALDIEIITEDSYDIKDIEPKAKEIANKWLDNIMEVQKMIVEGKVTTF
Protocol: as §1, §2, §3

SMILES	Percentage Turn-over mMAT [%]
CCCSCC[C@H](N)C(=O)O [compound 8, (2S)-2-amino-4-(propylsulfanyl)butanoic acid]	21
CC(C)SCC[C@H](N)C(=O)O [compound 9, (2S)-2-amino-4-(propan-2-ylsulfanyl)butanoic acid]	8
C#CCCSCC[C@H](N)C(=O)O [compound 10, (2S)-2-amino-4-(but-3-yn-1-ylsulfanyl)butanoic acid]	16
C/C=C/CSCC[C@H](N)C(=O)O [compound 11, (2S)-2-amino-4-[(2E)-but-2-en-1-ylsulfanyl]butanoic acid]	30
C=C(C)CSCC[C@H](N)C(=O)O [compound 12, (2S)-2-amino-4-[(2-methylprop-2-en-1-yl)sulfanyl]butanoic acid]	6
